# From patent publication US20030181461A1, “Use of phosphodiesterase antagonists to treat insulin resistance” (priority 2002, published 2003)
# What was measured:
# [1] = tested on: insulin sensitivity in atropine-treated rats; assay: Rapid insulin sensitivity test (RIST) in rats with atropine-induced 75% HISS-dependent insulin resistance; assay type: in vivo, Male Sprague Dawley rats; conditions: zaprinast 0.1 mg/kg ipv
# Experimental: Methods for reversal of HISS-dependent insulin resistance using a phosphodiesterase inhibitor in normal rats Male Sprague Dawley rats (250-300 g) were allowed free access to water and normal rodent food for 1 week prior to all studies. Rats were fasted for 8 hours overnight and fed for 2 hours before the start of study. Rats were anesthetized with pentobarbital-sodium (65 mg/ml, ip injection, 0.1 ml/100 g body weight). Animals were placed on a heated thermostatically controlled surgical table to maintain body temperature during surgery and the experimental procedure. An extra-corporeal arterial-venous shunt (the loop) was established between the right femoral artery and right femoral vein, according to a published, standard operating procedure developed in our laboratory (Xie et al., 1996). The loop allows for regular blood sampling of arterial blood throughout the experiment as well as infusion of intravenous drugs and monitoring of arterial blood pressure. […] A laparotomy was performed and an indwelling portal venous catheter was inserted using a portal vein puncture technique. The portal catheter was used to administer the phosphodiesterase inhibitor directly to the liver. […] At this point, blood samples (25 μl) were taken at regular intervals from the loop and analyzed for glucose concentration. […] Glucose levels were monitored every 2 minutes during and after the infusion of insulin. […]
# [2] = tested on: insulin resistance in cats; assay: Development of insulin resistance in cats after muscarinic antagonists (RIST); assay type: in vivo
# Excerpt: To avoid the complexity of the reaction to hypoglycemia, the rapid insulin sensitivity test (RIST) was employed (Lautt et al., Can. J. Physiol. Pharmacol. 76:1080 (1998)) wherein a euglycemic clamp was used following the administration of insulin and the response was quantitated as the amount of glucose required to be infused over the test period in order to hold arterial blood glucose levels constant.
Structure (SMILES),Reversal of HDIR produced by atropine [1],Dose required to produce a full (similar degree of) insulin resistance [2]
CCCOc1ccccc1-c1nc2nn[nH]c2c(=O)[nH]1 [zaprinast],able to reverse the HDIR produced by atropine,–
COc1ccccc1CNCCCCCCNCCCCCCCCNCCCCCCNCc1ccccc1OC [methoctramine],–,10^−6 μmol/kg
